In article PMC3089604 (PLoS ONE, 2011):
Where two headings read alike, the source gives them in different places.

Tests used:
[1] = biological target: T1, recombinant human DYRK1A (Homo sapiens, UniProt Q13627); experiment: In vitro kinase assay: DYRK1A catalyzed direct phosphorylation of recombinant tau on serine 396 (western); type: biochemical; conditions: for IC50: recombinant DYRK1A + 4R2N tau, 1 mM ATP
T1 construct: purchased Invitrogen

[2] = tested on: tau phosphorylation in 4R0N tau overexpressing H4 neuroglioma cells; experiment: Cell culture tau assay: western for total and phosphorylated tau after 96 h compound treatment; type: cell-based; conditions: for 12E8 % Control pTau/Total / pS396 % Control pTau/Total / pT231 % Control pTau/Total: normalized to total tau
Protocol: 4R0N tau overexpressing H4 neuroglioma cells were maintained in Dulbecco's Modified Eagle Medium (Invitrogen) supplemented with 10% fetal bovine serum (Invitrogen), 1% penicillin-streptomycin, geneticin (0.25 mg/ml), and 2 mM L-Glutamine (Invitrogen). Cells were maintained by splitting 1∶10 at 90% confluency. Prior to any experimentation, cells were 70–75% confluent to ensure cells were in their active growth phase. To test effects of DYRK1A knockdown on tau phosphorylation, cells were transfected with DYRK1A siRNA. Prior to treating cells with DYRK1A siRNA, siRNA was first complexed with siLentfect lipid transfection reagent (Bio-Rad) and reduced serum medium (Invitrogen) using a 6 well plate format. The final effective siRNA molarity used was 22.85 nM per well. Cells were grown for 96 hours at 37°C, 5% CO2. Cell lysates were prepared using the Complete Lysis-M, EDTA-free kit (Roche Applied Science) and total protein concentration was quantified using the BCA protein assay (Pierce). Westerns for the multiple forms of tau were performed as described below.
For all cell-based experiments, including siRNA treatments and compound treatments, cells were treated for 96 hours at 37°C, with 5% CO2. Cell lysates were then prepared using the Complete Lysis-M, EDTA-free kit (Roche Applied Science) supplemented with phosphatase inhibitor cocktails 1 and 2 (Sigma). Lysates were quantified using the BCA protein assay (Pierce). Protein from lysates (30 µg total protein per lane) was separated on SDS-PAGE gels and transferred to nitrocellulose membrane. Membranes were blocked in 5% blocking solution for one hour at room temperature (RT). Blocking buffer solution used for detection of non phosphorylated protein contained 5% Non-fat dry milk in 1×-TBS-T (50 mM Tris-HCl pH 7.4, 137 mM […], 2.7 mM KCl, 0.1% Tween). For detection of phosphorylated protein, blocking buffer solution contained 5% Bovine Serum Albumin in 1× TBS-T. Membranes were probed with primary antibody (various dilutions depending on the epitope – see below) in blocking buffer overnight at 4°C on a rocker. Membranes were subsequently washed with 1× TBS-T and probed with secondary antibody in blocking buffer for forty-five minutes using a 1∶25,000 dilution of HRP-GAM or HRP-GAR (Jackson Immunoresearch), depending on the species (mouse or rabbit) in which the primary antibodies were raised. Following incubation with secondary antibody, membranes were washed in 1× TBS-T and developed with Super Signal West Femto Maximum Sensitivity Substrate Kit ([…]) and digitally imaged. Protein band signal saturation was assessed before any further analysis of multiple forms of tau. Alpha Innotech Fluoro Chem SF imaging software verifies degrees of saturation when signal intensity is beyond the dynamic range (which is from 0–65,535). Protein band signal intensities used for quantification were within the instrument's dynamic range.
To test multiple primary antibodies, membranes were stripped for 15 minutes at RT using ReBlot Plus Mild Antibody Stripping Solution (Millipore). Membranes were then washed for 5 minutes in 1× TBS-T and blocked for one hour in 5% blocking solution at RT. For verification of protein loading, membranes were reprobed overnight at 4°C with an anti-Tubulin primary antibody (1∶1000 dilution; Cell Signaling). Primary antibodies used for detection included anti-tau (1∶2000 dilution; Dako), 12E8 tau (1∶7500 dilution; Peter Seubert, Elan Pharmaceuticals), pT231 tau (1∶1000 dilution; Abcam), pS396 tau (1∶5000 dilution; Abcam), and anti-DYRK1A (1∶500 dilution; Santa Cruz).
Cells undergoing any treatment, including β-carboline derivative dosing and siRNA treatment, were maintained in Dulbecco's Modified Eagle Medium (Invitrogen) supplemented with 10% fetal bovine serum (Invitrogen) and 2 mM L-Glutamine (Invitrogen). Viability assays were performed using a 96-well pate format. […]

[3] = alamar Blue viability (toxicity) assay; type: cell-based; conditions: human; H4 neuroglioma cells, drug renewed every 24 h for four days; read-out: IC50 for viability (concentration resulting in 50% cell viability)
Protocol: Cells undergoing any treatment, including β-carboline derivative dosing and siRNA treatment, were maintained in Dulbecco's Modified Eagle Medium (Invitrogen) supplemented with 10% fetal bovine serum (Invitrogen) and 2 mM L-Glutamine (Invitrogen). Viability assays were performed using a 96-well pate format. Metabolic activity was measured 12 hours after the addition of 10% alamar Blue (Invitrogen) directly to attached cells in full medium. This assay was based on the ability of metabolically active cells to convert alamar Blue reagent into a fluorescent signal proportional to innate metabolic activity. Once the ideal IC50 value for viability was identified, effects on multiple forms of tau were investigated after treating with the β-carbolines indicated in Table S1 using the larger 6 well plate format. For both the viability assay and cell culture tau assays, cell culture media was removed and cells were treated with freshly made drug in new media every 24 hours for four days. For cell culture tau assays, protein lysates were prepared after 96 hours of treatment. All compounds were solubilized in dimethylsulfoxide (DMSO), diluted in growth medium to their respective 0.01 µM, 0.1 µM, 1 µM and 10 µM final working dilutions and added directly to cultured cells. The final DMSO percentage in culture for all compounds and concentrations tested was 0.1%. […]

[4] = tested on: DYRK1A; design: method as in PMID 17850214; conditions: synthetic peptide substrate; read-out: IC50 against DYRK1A; cited from earlier work
[5] = tested on: MAO-A; design: method as in PMID 18980841; conditions: read-out: IC50 against MAO-A; cited from earlier work
[6] = read-out: IC50 for inhibition of DYRK1A dependent tau phosphorylation at serine 396
[7] = 30 min 30C, read-out: IC50 for inhibition of DYRK1A dependent tau phosphorylation at serine 396 (pS396)

CCn1c2cc(OC)ccc2c2ccnc(C)c21 [9-ethylharmine]
Reduction of IC50 relative to harmine ([1]; pS396 in vitro phosphorylation, ethyl group on N-9 vs harmine): ~2 fold | IC50 [1, 6]: 0.4 µM | Concentration at which tau levels were significantly reduced (p<0.05) ([2]; H4-tau cells, 96 h): 1 µM

COc1ccc2c3c([nH]c2c1)C(C)=NCC3 [Harmaline, harmaline]
IC50 [1, 7]: 9 µM

Cc1nccc2c1[nH]c1ccccc12 [Harmane, harmane]
IC50 [1, 7]: 15 µM

COc1ccc2c(c1)[nH]c1c(C)nccc12 [Harmine]
IC50 at 4 days [3]: 12 µM | 12E8 (pS262/pS356) tau % Control ([2]; 8 µM, 96 h, H4-tau cells): 32 ± 7 % Control | Total Tau % Control ([2]; 8 µM, 96 h, H4-tau cells): 55 ± 9 % Control | pS396 tau % Control ([2]; 8 µM, 96 h, H4-tau cells): 49 ± 8 % Control | pT231 tau % Control ([2]; 8 µM, 96 h, H4-tau cells): 24 ± 6 % Control | 12E8 % Control pTau/Total ([2]; 8 µM, 96 h): 58 ± 6 % Control | pS396 % Control pTau/Total ([2]; 8 µM, 96 h): 89 ± 7 % Control | pT231 % Control pTau/Total ([2]; 8 µM, 96 h): 44 ± 5 % Control | 12E8 % Control pTau/Total ([2]; 8 µM, 96 h, listed as harmine): 58 % Control | pT231 % Control pTau/Total ([2]; 8 µM, 96 h, listed as harmine): 44 % Control | Concentration at which tau levels were significantly reduced (p<0.05) ([2]; H4-tau cells, 96 h): […] | IC50 [4]: […]

Cc1[nH]ccc2c1[nH]c1cc(=O)ccc12 [Harmol, harmol]
IC50 [1, 6]: 0.09 µM

O=C(NCCN1CCOCC1)c1ccc(Cl)cc1 [Moclobemide]
12E8 (pS262/pS356) tau % Control ([2]; 500 µM (highest concentration), 96 h): 116 ± 10 % Control | Total Tau % Control ([2]; 500 µM, 96 h): 103 ± 7 % Control | pS396 tau % Control ([2]; 500 µM, 96 h): 98 ± 9 % Control | pT231 tau % Control ([2]; 500 µM, 96 h): 118 ± 13 % Control | 12E8 % Control pTau/Total ([2]; 500 µM): 112 ± 8 % Control | pS396 % Control pTau/Total ([2]; 500 µM): 95 ± 9 % Control | pT231 % Control pTau/Total ([2]; 500 µM): 114 ± 12 % Control | Effect on levels of total tau or specific phosphorylated forms of tau ([2]; doses up to 500 µM): did not reduce | IC50 [5]: 3.9 µM

c1ccc2c(c1)[nH]c1cnccc12 [Norharmane, norharmane]
IC50 [1, 7]: 45 µM
